The text below walks through data of ChEMBL document CHEMBL5029198, “Water-Soluble Nystatin and Derivative” (ACS Med Chem Lett, 2022).

The subject of one data set is Candida albicans. Put plainly: Antifungal activity against Candida albicans ATCC 10231 assessed as reduction in fungal growth incubated overnight by broth dilution method. It is filed as functional. A general note: Dilution methods test growth across graded concentrations, often in twofold steps.
The next data set concerns Aspergillus niger. Put plainly: Antifungal activity against Aspergillus niger ATCC 20057 assessed as reduction in fungal growth incubated overnight by broth dilution method. In kind it is functional.
Data set [1] in a line: Protein binding in human plasma assessed as unbound fraction at 0.25 mg/ml measured after 48 hrs by RP-HPLC analysis (Rvb= 0.147 mg/ml). It is filed as ADME, cell-free.
Data set [2] is described as follows: Protein binding in human plasma at 0.5 mg/ml measured after 24 hrs by RP-HPLC analysis relative to control. It is filed as ADME, cell-free. The conditions noted are these: read-out: PPB (converted).
Data set [3] is described as follows: Cytotoxicity against human HEp-2 cells assessed as reduction in cell viability incubated for 40 to 60 mins by resazurin dye based assay. The settings on record: time 40-60 min. Background: Resazurin is reduced to fluorescent resorufin, in cell work by metabolically active cells.
Data set [4] is described as follows: Protein binding in human plasma assessed as unbound fraction at 0.25 mg/ml measured after 24 hrs by RP-HPLC analysis (Rvb= 0.147 mg/ml). In kind it is ADME, cell-free.
A short description of data set [5]: Hemolytic activity in human RBC at 0.25 mg/ml measured after 1 hr. In kind it is ADME, tissue-based. The settings on record: erythrocyte.
Data set [6] can be described thus: Protein binding in human plasma assessed as unbound fraction at 0.5 mg/ml measured after 48 hrs by RP-HPLC analysis (Rvb= 0.211 mg/ml). It is filed as ADME, cell-free.
A short description of data set [7]: Stability of compound in human plasma assessed as retention time at 0.5 mg/ml measured after 6 hrs by HPLC analysis. In kind it is ADME, cell-free.
Data set [8] is described as follows: Protein binding in human plasma assessed as unbound fraction at 0.05 mg/ml measured after 24 hrs by RP-HPLC analysis (Rvb= 0.014 mg/ml). It is filed as ADME, cell-free.
A short description of data set [9]: Protein binding in human plasma assessed as free fraction at 0.5 mg/ml measured after 48 hrs by RP-HPLC analysis relative to control. It is filed as ADME, cell-free.
Data set [10] is described as follows: Protein binding in human plasma assessed as free fraction at 0.1 mg/ml measured after 48 hrs by RP-HPLC analysis relative to control. In kind it is ADME, cell-free.
The nature of data set [11]: Protein binding in human plasma assessed as unbound fraction at 0.1 mg/ml measured after 48 hrs by RP-HPLC analysis (Rvb= 0.069 mg/ml). It is filed as ADME, cell-free.
Data set [12] in a line: Aqueous solubility of compound at up to 100 mg/ml. The settings on record: buffer. In kind it is physicochemical.
Data set [13] in a line: Protein binding in human plasma assessed as unbound fraction at 0.5 mg/ml measured after 24 hrs by RP-HPLC analysis (Rvb= 0.211 mg/ml). It is filed as ADME, cell-free.
The nature of data set [14]: Protein binding in human plasma assessed as unbound fraction at 0.1 mg/ml measured after 24 hrs by RP-HPLC analysis (Rvb= 0.069 mg/ml). In kind it is ADME, cell-free.
Data set [15] in a line: Stability of compound in human plasma assessed as retention time at 0.5 mg/ml measured after 48 hrs by HPLC analysis. It is filed as ADME, cell-free.
Data set [16] can be described thus: Hemolytic activity in human RBC at 0.5 mg/ml measured after 1 hr relative to control. It is filed as ADME, tissue-based, Erythrocyte. The settings on record: red blood cells, read-out: Activity.
A short description of data set [17]: Protein binding in human plasma at 0.25 mg/ml measured after 24 hrs by RP-HPLC analysis relative to control. It is filed as ADME, cell-free. The settings on record: read-out: PPB (converted).
Data set [18] can be described thus: Protein binding in human plasma assessed as free fraction at 0.25 mg/ml measured after 48 hrs by RP-HPLC analysis relative to control. In kind it is ADME, cell-free.

In brackets after ≈: the same amount, converted by molar mass. Where a SMILES comes first, the peptide text is derived from it. Bridges are numbered along the chain shown (N, C = ends). [ ]: non-standard residue; d: D form. The star is where a group is joined. X1 = CC[C@H](C)CCCCC(=O)*; Dab = NCC[C@H](N)C(=O)O A value given as a limit tells only on which side of the number the result lay.

For orientation: MIC means the lowest concentration found to suppress growth. In general, CC50 refers to the concentration at which the toxic effect on the cells reaches its halfway point.

As for `CC[C@H](C)CCCCC(=O)N[C@@H](CCN)C(=O)N[C@H](C(=O)N[C@@H](CCN)C(=O)N[C@H]1CCNC(=O)[C@H]([C@@H](C)O)NC(=O)[C@H](CCN)NC(=O)[C@H](CCN)NC(=O)[C@H](CC(C)C)NC(=O)[C@@H](Cc2ccccc2)NC(=O)[C@H](CCN)NC1=O)[C@@H](C)O` (X1-[Dab]T[Dab][Dab][Dab][dF]L[Dab][Dab]T; lactam 4-C), the MIC with Candida albicans and with Aspergillus niger was more than 35 µg/mL in each case.

With `CC(=O)O.C[C@@H]1[C@H](O)[C@@H](C)/C=C/C=C/CC/C=C/C=C/C=C/C=C/[C@H](O[C@@H]2O[C@H](C)[C@@H](O)[C@H](N)[C@@H]2O)C[C@@H]2O[C@](O)(C[C@@H](O)[C@H](O)CC[C@@H](O)C[C@@H](O)C[C@@H](O)CC(=O)O[C@H]1C)C[C@H](O)[C@H]2C(=O)NCCO`, the “Cp(f)” value in [1] amounted to 100 µg/mL; in [4], 120 µg/mL; in data set [6] it was 137 µg/mL; in data set [8], 13 µg/mL; in data set [11], 30 µg/mL; in data set [13] it was 168 µg/mL. The “Cp(f)” value in data set [14] came to 42 µg/mL. Besides, the fraction unbound at 24 h, 0.5 mg/ml in data set [2] was 0.34. Besides, the CC50 in [3] is 149 µg/mL. Further, the Activity result in data set [5] is on record as “Non-Toxic”. In addition, the Retention_time was determined as 9.4 min in data set [7] and 6.5 min in [15]. Further, the MIC in the data set with Candida albicans amounted to 5 µg/mL; in the data set on Aspergillus niger, 23.6 µg/mL. The fraction unbound at 48 h, 0.5 mg/ml in [9] was 0.274. The fraction unbound at 48 h, 0.1 mg/ml in [10] came out at 0.3. Also, in data set [12], the solubility result was “Soluble”. The hemolysis at 1 h, 0.5 mg/ml in data set [16] stood at 62%. For the same compound, the fraction unbound at 24 h, 0.25 mg/ml in data set [17] is 0.48. Also, the fraction unbound at 48 h, 0.25 mg/ml in data set [18] stood at 0.4.

As for `CC(=O)O.COC(=O)[C@H]1[C@@H]2C[C@@H](O[C@@H]3O[C@H](C)[C@@H](O)[C@H](N)[C@@H]3O)/C=C/C=C/C=C/C=C/CC/C=C/C=C/[C@H](C)[C@@H](O)[C@@H](C)[C@H](C)OC(=O)C[C@H](O)C[C@H](O)C[C@H](O)CC[C@@H](O)[C@H](O)C[C@](O)(C[C@@H]1O)O2`, the values for the MIC in the data set with Candida albicans and with Aspergillus niger were 30 µg/mL and more than 35 µg/mL, respectively.

Take NYSTATIN [listing 1 of 2 here]: the Activity result in data set [5] is “Toxic”.

On to `C[C@@H]1[C@H](O)[C@@H](C)/C=C/C=C/C=C/C=C/C=C/C=C/C=C/[C@H](O[C@@H]2O[C@H](C)[C@@H](O)[C@H](N)[C@@H]2O)C[C@@H]2O[C@](O)(C[C@@H](O)C[C@@H](O)[C@H](O)CC[C@@H](O)C[C@@H](O)CC(=O)O[C@H]1C)C[C@H](O)[C@H]2C(=O)O` [AMPHOTERICIN B], for which, in data set [3], the CC50 came out at 87 µg/mL (≈ 94.1 µM). In addition, the figures for the MIC in the data set on Candida albicans and in the data set on Aspergillus niger were 5 µg/mL (≈ 5.41 µM) and 31.5 µg/mL (≈ 34.1 µM), respectively.

Regarding `Clc1ccc(COC(Cn2ccnc2)c2ccc(Cl)cc2Cl)cc1` (configuration not stated) [ECONAZOLE], the MIC in the data set on Candida albicans and with Aspergillus niger was more than 35 µg/mL each time.

In the case of NYSTATIN [listing 2 of 2 here], the MIC was 10 µg/mL with Candida albicans and 22.5 µg/mL in the data set with Aspergillus niger.
